Counter-ions that a name gives are not always drawn.
These molecules were tested against T1, human α-thrombin (Homo sapiens, UniProt P00734) (assay: In vitro inhibition of purified enzymes: Ki determination, thrombin (hydrolysis of N-succinyl-Ala-Ala-Pro-Arg-p-nitroanilide)). Conditions: purified human α-thrombin 0.5 nM, 50 mM HEPES, 200 mM NaCl, pH 7.5, 37° C., 4.3% DMSO.
T1 construct: Purified human α-thrombin; purchased Enzyme Research Laboratories (South Bend, Ind.)
Assay type: biochemical
Description: Reagents: All buffer salts were obtained from Sigma Chemical Company (St. Louis, Mo.), and were of the highest purity avalable. The enzyme substrates, N-benzoyl-Phe—Val—Arg-p-nitroanilide (Sigma B7632), N-benzoyl-Ile—Glu—Gly—Arg-p-nitroanilide hydrochloride (Sigma B2291), N-p-Tosyl-Gly—Pro—Lys-p-nitroanilide (Sigma T6140), N-succinyl-Ala—Ala—Pro—Phe-p-nitroanilide (Sigma S7388) and N-CBZ-Val—Gly—Arg-p-nitroanilide (Sigma C7271) were obtained from Sigma.
Human α-thrombin, human factor Xa and human plasmin were obtained from Enzyme Research Laboratories (South Bend, Ind.). Bovine α-chymotrypsin (Sigma C4129), bovine trypsin (Sigma T8642) and human kidney cell urokinase (Sigma U5004) were obtained from Sigma. Human leukocyte elastase was obtained from Elastin Products (Pacific, Mo.).
Ki Determinations: All assays are based on the ability of the test compound to inhibit the enzyme catalyzed hydrolysis of a peptide-p-nitroanililide substrate. […] The final concentrations for each of the substrates is listed below. […] Dilutions are prepared in DMSO yielding 8 final concentrations encompassing a 200 fold concentration range. Enzyme solutions are prepared at the concentrations listed below in assay buffer.
Data corresponding to less than 10% of the total substrate hydrolysis were used in the calculations. The ratio of the velocity (rate of change in absorbance as a function of time) for a sample containing no test compound is divided by the velocity of a sample containing test compound, and is plotted as a function of test compound concentration. The data are fit to a linear regression, and the value of the slope of the line calculated. The inverse of the slope is the experimentally determined K value.
Thrombin: Thrombin activity was assessed as the ability to hydrolyze the substrate N-succinyl-Ala—Ala—Pro—Arg-p-nitroanilide. […] Final DMSO concentration was 4.3%. […] Final reagent concentrations were: [thrombin]=0.5 nM, [substrate N-succinyl-Ala—Ala—Pro—Arg-p-nitroanilide]=32 mM.
With `Cc1c(Cl)nc(NCC(c2ccccc2)c2ccccc2)c(=O)n1CC(=O)NCCONC(=N)N` [Example 4, 1-{N-[2-(amidinoaminooxy)ethyl]amino}carbonylmethyl-5-chloro-6-methyl-3-(2,2-diphenylethylamino)-pyrazinone trifluoroacetate] the Ki was 85 nM. `Cc1cnc(NCCc2ccccc2)c(=O)n1CC(=O)NCCONC(=N)N` [Example 1, 1-{N-[2-(amidinoaminooxy)ethyl]amino}carbonylmethyl-6-methyl-3-(phenethylamino)-pyrazinone trifluoroacetate] gave a Ki of 46 nM. `Cc1c(Cl)nc(NCCc2ccccc2)c(=O)n1CC(=O)NCCONC(=N)N` [Example 2, 1-{N-[2-(amidinoaminooxy)ethyl]amino}carbonylmethyl-5-chloro-6-methyl-3-(phenethylamino)-pyrazinone trifluoroacetate] showed a Ki of 330 nM. For `Cc1ccc(CCNc2ncc(C)n(CC(=O)NCCONC(=N)N)c2=O)cc1` [Example 5, 1-{N-[2-(amidinoaminooxy)ethyl]amino}carbonylmethyl-6-methyl-3-(4-methylphenethylamino)-pyrazinone trifluoroacetate], the Ki was 20 nM.

— patent publication US6514978B2, “Thromboresistant materials incorporating pyrazinone protease inhibitors” (3-Dimensional Pharmaceuticals, Inc., priority 1998, dated 2003)
